From PubChem BioAssay AID463206 (Broad Institute, 2010)
Several values for one entry are separate records, joined by “and”; a condition that tells them apart may be missing. Equal values may be shown once. Activity calls are given as the source filed them.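 The calls were made as follows: active = caspase luminescence falls with dose and the half-maximal concentration AC50 from the fitted curve is at or below a set limit; inconclusive = flat fit at 30 to 70% signal loss, or invalid fit; inactive = AC50 above the limit, or signal rises instead.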

The compounds below were run on INS-1E cytokine-induced caspase-3/7, Caspase-Glo luminescence, 48 h (assay: suppression of cytokine-driven beta-cell apoptosis – INS-1E rat cells, luminescence, orthogonal assay for beta-cell apoptosis protection project, dose response (AID 463206)).
With `CCCCC(CC)CN1C(=O)/C(=C/c2ccncc2)SC1=S` (stereo not given) the AC50 was > 26 µM (inactive). For `Cc1ccc(N2C(=O)NC(=O)/C(=C\C=C\c3ccco3)C2=O)cc1C`, the AC50 was > 26 µM (inactive). With `Cc1ccc(C(C)C)c(OCc2nn(CC(=O)c3ccc(Cl)cc3)c3[n+]2CCCCC3)c1` the AC50 was > 26 µM (inactive). With `CCCCCCCCCCOC(=O)C[N+](C)(C)C/C=C(/C)Cl` the AC50 was > 26 µM (inactive). `Cc1cccc(CNc2ncnc3ccc(-c4ccc5c(c4)OCCO5)cc23)c1` was tested, and the AC50 was > 26 µM (inactive). For `COc1ccc(N=Nc2ccc(O)c3ncccc23)cc1`, the AC50 was > 12 µM (inactive). With `O=C(N/N=C/c1cc([N+](=O)[O-])ccc1O)c1cccc2ccccc12` the AC50 was > 26 µM (inactive). For `O=C(N/N=C/c1ccc(O)cc1O)/C(=C/c1ccccc1)CCO`, the AC50 was > 26 µM (inactive). `O=C(NCc1cccnc1)/C(=C\c1ccc(-c2cccc(Cl)c2)o1)S(=O)(=O)c1ccccc1` was tested, and the AC50 was > 26 µM (inactive). With `N#C/C(=C\c1ccc([N+](=O)[O-])o1)c1nc2ccccc2[nH]1` the AC50 was > 26 µM (inactive). In the case of `CCC(=O)NC(c1cccs1)c1ccc2cccnc2c1O` (stereo not given), the AC50 is reported as > 26 µM (inactive). In the case of `CC(C)=CCc1cc2c(=O)c3c(O)c4c(cc3oc2c(O)c1O)OC(C)C4(C)C` (stereo not given), the AC50 is reported as > 26 µM (inactive). In the case of `Cc1ccccc1Cn1ccc(=NCc2ccccc2)cc1`, the AC50 is reported as > 26 µM (inactive). For `COC(=O)c1c(C)oc2ccc(N(C(=O)c3ccncc3)S(=O)(=O)c3ccc4ccccc4c3)cc12`, the AC50 was > 26 µM (inactive). In the case of `COc1ccc(-n2c(-c3ccc(Br)cc3)c[n+]3c2CCc2ccccc2-3)cc1`, the AC50 is reported as > 26 µM (inactive). With `Cc1ccc(S(=O)(=O)Nc2ccc(C(OC(=O)c3ccccc3[N+](=O)[O-])(C(F)(F)F)C(F)(F)F)cc2)cc1` the AC50 was > 26 µM (inactive). In the case of `N#Cc1ccc(C(=O)Nc2nc(-c3cccs3)c(C(=O)C(F)(F)F)s2)cc1`, the AC50 is reported as > 26 µM (inactive). With `O=c1[nH]c(=O)n(-c2ccc(F)cc2)c2c1C(C(F)(F)F)(C(F)(F)F)N=C(c1ccc(F)cc1)N2` the AC50 was > 26 µM (inactive). In the case of `CCCCCn1c(=O)c(C(=O)Nc2nc3ccccc3[nH]2)c(O)c2ccccc21`, the AC50 is reported as > 26 µM (inactive). `COc1cccc(/C=N/NC(=O)C(=O)Nc2ccccc2OC(F)(F)C(F)F)c1O` was tested, and the AC50 was > 26 µM (inactive). For `CCCCC[n+]1cccc2c3ccccc3ccc21`, the AC50 was > 26 µM (inactive). `Cc1nnc(N=c2ssnc2Cl)o1` was tested, and the AC50 was > 26 µM (inactive). With `O=C(NCC#CCSc1nnc(-c2cccc3ccccc23)o1)c1cccs1` the AC50 was > 26 µM (inactive). In the case of `CCN(CC(=O)Nc1ccc(NC(C)=O)cc1)C(=O)CCCOc1ccc(C(C)(C)C)cc1`, the AC50 is reported as > 26 µM (inactive). In the case of `C/C(=N\NC(=O)c1cc2ccccc2cc1O)c1ccccn1`, the AC50 is reported as > 26 µM (inactive). `COc1ccc(N/N=C(/N=Nc2nc(C)cc(=O)[nH]2)c2ccccc2)cc1` was tested, and the AC50 was > 26 µM (inactive). With `N=c1c2c(-c3ccccc3)c(-c3ccccc3)n(Cc3ccco3)c2ncn1Cc1ccccc1` the AC50 was > 26 µM (inactive). In the case of `O=C(Nc1cccc(S(=O)(=O)Nc2ccc(Cl)cc2)c1)c1ccc(Cl)nc1`, the AC50 is reported as > 26 µM (inactive). In the case of `CCN(CC)c1ccc(/C=N/N(c2ccccc2)c2ccccc2)c(O)c1`, the AC50 is reported as > 26 µM (inactive). In the case of `COc1ccc(-c2nc(-c3ccccn3)no2)cc1`, the AC50 is reported as > 26 µM (inactive). In the case of `COCCNc1nc2c(c(=O)n(C)c(=O)n2C)n1Cc1cccc(C(F)(F)F)c1`, the AC50 is reported as > 26 µM (inactive). With `COC(=O)c1cc(O)cc(OC)c1Oc1cc(C)cc(O)c1C(=O)O` the AC50 was 3.06 µM. In the case of `Cc1[nH]n(-c2ccccc2)c(=O)c1/C=N/Nc1nncc(-c2ccccc2)n1`, the AC50 is reported as > 26 µM (inactive). With `CCN1CCN(Cc2ccc(NC(=O)c3ccc(C)c(NC(=O)C(=O)c4c[nH]c5ccccc45)c3)cc2C(F)(F)F)CC1` the AC50 was > 12 µM (inactive) and > 26 µM (inactive). In the case of `COc1ccc(Br)cc1CN(C)CC(=O)NCc1ccc(F)cc1`, the AC50 is reported as > 26 µM (inactive). For `Cc1nn(-c2ccccc2)c(C)c1NC(=O)COc1ccc(Br)cc1Cl`, the AC50 was > 26 µM (inactive). With `Cc1ccc(-c2cc(-c3ccc(C)cc3)[n+](-c3ccccc3)c(-c3ccc(C)cc3)c2)cc1` the AC50 was > 26 µM (inactive). For `Cc1noc(-c2ccc(C(F)(F)F)cc2)c1NC(=O)Nc1ccc(Cl)cc1`, the AC50 was > 26 µM (inactive). `Cc1cc(N/N=C/c2ccc(O)cc2O)nc(-n2nc(C)cc2C)n1` was tested, and the AC50 was > 26 µM (inactive). For `Cc1cc(C)n2nc(SCc3nnc(SCc4ccccc4C)s3)nc2n1`, the AC50 was > 26 µM (inactive). With `C=CCSc1nsc(NC(=O)Nc2ccc(F)cc2)n1` the AC50 was > 26 µM (inactive). For `Cc1ccc(S(=O)(=O)N2CCCCC2c2cccnc2)c(C)c1C` (stereo not given), the AC50 was > 26 µM (inactive). `O=S1(=O)C=C(Sc2nc3ccccc3s2)c2ccccc21` was tested, and the AC50 was > 26 µM (inactive). In the case of `CCC(C)(C)c1ccc(OCCCC[n+]2ccc(C)cc2)c(C(C)(C)CC)c1`, the AC50 is reported as > 26 µM (inactive). `CC(C)(C)c1ccc(C(O)CCCN2CCC(C(O)(c3ccccc3)c3ccccc3)CC2)cc1` (stereo not given) was tested, and the AC50 was > 26 µM (inactive). With `O=C(Nc1ccc(-c2nc3ccccc3o2)cc1)c1ccc(N2CCOCC2)c([N+](=O)[O-])c1` the AC50 was > 26 µM (inactive). With `O=C(NCc1nc(-c2ccc(C(F)(F)F)cc2)no1)Nc1cc(Cl)cc(Cl)c1` the AC50 was > 26 µM (inactive). With `C/C(=N/NC(=O)c1ccc(C(C)(C)C)cc1)c1ccccn1` the AC50 was > 26 µM (inactive). In the case of `COc1ccccc1N1CCN(Cc2ccc(O)c3ncccc23)CC1`, the AC50 is reported as > 26 µM (inactive). With `O=C(CSC1c2ccccc2-c2ccccc21)N/N=C/c1ccccc1O` the AC50 was > 26 µM (inactive). For `Cc1sc2ncnc(N3CCN(S(=O)(=O)c4ccc(C(C)(C)C)cc4)CC3)c2c1C`, the AC50 was > 26 µM (inactive). In the case of `C/C(=N\Nc1nc(-c2ccccn2)nc2ccccc12)c1ccc(F)cc1`, the AC50 is reported as > 26 µM (inactive). With `Cc1cc(S(=O)(=O)NCc2ccncc2)c(C)cc1Br` the AC50 was > 26 µM (inactive). For `Cc1c(C(C)C)c(=O)n(-c2ccc(S(=O)(=O)NCc3ccccc3)cc2)n1C`, the AC50 was > 26 µM (inactive). For `N/C(=N\OC(=O)c1ccc(Cl)cc1Cl)c1ccccn1`, the AC50 was > 26 µM (inactive). For `O=S(=O)(c1ccc(Cl)cc1)N1CCN(Cc2ccc(O)c3ncccc23)CC1`, the AC50 was > 26 µM (inactive). With `Cc1ccc(NC2=C/C(=N/S(=O)(=O)c3cccs3)c3ccccc3C2=O)cc1C` the AC50 was > 26 µM (inactive). For `Cc1cc(-c2n[nH]c(=S)n2/N=C/C(Br)=C/c2ccccc2)n[nH]1`, the AC50 was 12.4 µM. `Cc1ccc2c(c1)Sc1c(ccc3ccccc13)N2` was tested, and the AC50 was > 26 µM (inactive). `Cc1ccc(C)n1-c1ccc(C(=O)Nc2ccccc2)cc1` was tested, and the AC50 was > 26 µM (inactive). With `CC1CCC(C(C)C)C(OC(=O)Cn2c(COc3ccccc3)[n+](C)c3ccccc32)C1` (stereo not given) the AC50 was > 26 µM (inactive). With `COc1cc(C(=O)Oc2ccccc2/C=N/NC(=O)c2ccc(C)c(Cl)c2)cc(OC)c1OC` the AC50 was > 26 µM (inactive). In the case of `CCCCC(CC)CN=C(N)NC(N)=NCCCCCCN=C(N)NC(N)=NCC(CC)CCCC` (stereo not given), the AC50 is reported as > 26 µM (inactive). `COc1cc(/C=C2\CC(C(C)(C)C)C/C(=C\c3cc(OC)c(OC)c(OC)c3)C2=O)cc(OC)c1OC` (stereo not given) was tested, and the AC50 was > 26 µM (inactive). `Cc1ccc(Cn2c(=N)n(CC(=O)c3ccccc3)c3ccccc32)cc1` was tested, and the AC50 was > 26 µM (inactive). In the case of `O=C1/C(=N\S(=O)(=O)c2cccs2)C([n+]2ccc(CCCc3ccccc3)cc2)=C([O-])c2ccccc21`, the AC50 is reported as > 12 µM (inactive). `COC(=O)c1ccc2c(c1)C(C)(C)C(/C=C/c1ccc(OC)c(OC)c1OC)=[N+]2C` was tested, and the AC50 was > 26 µM (inactive). In the case of `CN(C)S(=O)(=O)c1ccc(Nc2nc(C3CC3)nc3c2nnn3Cc2ccccc2Cl)cc1`, the AC50 is reported as > 26 µM (inactive). For `O=C(N/N=C/c1sc2ccccc2c1O)c1ccccc1`, the AC50 was > 26 µM (inactive). With `OC(CNCCC1C=Nc2ccccc21)Cn1c2ccc(Cl)cc2c2cc(Cl)ccc21` (stereo not given) the AC50 was > 26 µM (inactive). With `Oc1cccc(C(Nc2nccs2)c2ccc3cccnc3c2O)c1` (stereo not given) the AC50 was > 26 µM (inactive). For `O=C(c1ccccc1)C(CN1CCCC1)c1ccccc1` (stereo not given), the AC50 was > 26 µM (inactive). `COc1cccc(/C=N\NC(=O)c2ccc(Cn3cc(Br)c([N+](=O)[O-])n3)o2)c1O` was tested, and the AC50 was > 26 µM (inactive). In the case of `Cc1cc(C)nc(-n2nc(C)cc2Nc2ccccc2)n1`, the AC50 is reported as > 26 µM (inactive). For `Cc1ccc(C)c(S(=O)(=O)N2CCN(c3ncnc4sccc34)CC2)c1`, the AC50 was > 26 µM (inactive). In the case of `Nc1c(Cl)ncnc1N/N=C/c1ccccn1`, the AC50 is reported as > 26 µM (inactive). `NS(=O)(=O)c1ccc(N/N=C/c2cn(-c3ccccc3)nc2-c2cccs2)c([N+](=O)[O-])c1` showed an AC50 of 19 µM. In the case of `Cc1ccc(C)c(S(=O)(=O)Nc2ccc(O)c3ccccc23)c1`, the AC50 is reported as > 26 µM (inactive). Work on `Cc1ccc(NC(=O)/C=C/c2ccc([N+](=O)[O-])s2)c(C)c1` yielded an AC50 of 1.17 µM. With `Cc1ccc(S(=O)(=O)/N=C2\C=C(Nc3ccc(O)cc3)C(=O)c3ccccc32)cc1` the AC50 was > 26 µM (inactive). `COC(=O)c1ccccc1NC1=C/C(=N\S(=O)(=O)c2ccc(C(=O)O)cc2)c2ccccc2C1=O` was tested, and the AC50 was > 26 µM (inactive). For `CC(C)Cn1c(SCC(=O)N2CCc3ccccc3C2)nc2cc(Cl)ccc2c1=O`, the AC50 was > 26 µM (inactive). For `N#Cc1c(Cl)nsc1NC(=O)c1ccccc1`, the AC50 was > 26 µM (inactive). `O=[N+]([O-])c1ccccc1-c1cc(-c2ccccc2)cc(-c2ccccc2)[n+]1Cc1ccccc1Cl` was tested, and the AC50 was > 26 µM (inactive). With `COc1ccc(C(=O)c2c(C(F)(F)F)oc3c2C(=O)c2ccccc2C3=O)cc1` the AC50 was > 26 µM (inactive). For `COc1ccc(C(=O)N(C)c2ccccc2C(=O)NCCc2ccccc2)cc1`, the AC50 was > 26 µM (inactive). With `CCN1CCN(C2=C(NS(=O)(=O)c3ccccc3)C(=O)c3ccccc3C2=O)CC1` the AC50 was > 26 µM (inactive). In the case of `COc1ccc(-n2cc(-c3ccccc3)[n+]3c2CCCCC3)cc1`, the AC50 is reported as > 26 µM (inactive). In the case of `O=C(NC1CCCC1)c1cc(COc2ccc3ncccc3c2)on1`, the AC50 is reported as > 26 µM (inactive). In the case of `O=C(Nc1cccnc1)c1cccnc1`, the AC50 is reported as > 26 µM (inactive). In the case of `CCCCCCCCCn1ccc(=N)cc1`, the AC50 is reported as > 26 µM (inactive). In the case of `Cc1nc2ccccc2n1Cc1ccc(Br)cc1`, the AC50 is reported as > 26 µM (inactive). With `CCC(C)Sc1cccc(-c2nc3ccc(C)cn3c2NCc2ccccc2)c1` (stereo not given) the AC50 was > 26 µM (inactive). `C=CCNC(=S)N/N=C(\C)c1ccccn1` was tested, and the AC50 was > 26 µM (inactive). With `COc1ccccc1N1CCN(Cc2cc(Br)c(O)c3ncccc23)CC1` the AC50 was > 12 µM (inactive).
